Results on 17 compounds are retold here after PubChem BioAssay AID248 (DTP/NCI, 2004).

The structures appear in SMILES notation. Toxic doses and inconclusive results are not listed.

The subject of the assay is L1210 leukemia ip in BDF1 mice, survival T/C. Description: NCI In Vivo Anticancer Drug Screen. Data for tumor model L1210 Leukemia (intraperitoneal) in B6D2F1 (BDF1) mice. The following applies: endpoint: mean survival time, higher = longer survival. In outline:
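Value reflects the ratio of survival in compound-treated mice to survival in vehicle-treated controls, with both groups carrying the same transplanted tumor.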

Setting [1] is: dose: 100.0 mg/kg/injection, schedule: Q01DX009 (ip), vehicle: Klucel (hydroxypropylcellulose) (HPC).
Setting [2] is: dose: 200.0 mg/kg/injection, schedule: Q01DX009 (ip), vehicle: Klucel (hydroxypropylcellulose) (HPC).
[3] abbreviates: dose: 400.0 mg/kg/injection, schedule: Q01DX009 (ip), vehicle: Klucel (hydroxypropylcellulose) (HPC).
The mark [4] stands for this setting: dose: 50.0 mg/kg/injection, schedule: Q01DX001 (ip), vehicle: saline.
The mark [5] stands for this setting: dose: 100.0 mg/kg/injection, schedule: Q01DX001 (ip), vehicle: saline.
The mark [6] stands for this setting: dose: 200.0 mg/kg/injection, schedule: Q01DX001 (ip), vehicle: saline.
[7] abbreviates: dose: 100.0 mg/kg/injection, schedule: Q01DX009 (ip), vehicle: saline with Tween-80.
The mark [8] stands for this setting: dose: 200.0 mg/kg/injection, schedule: Q01DX009 (ip), vehicle: saline with Tween-80.
[9] abbreviates: dose: 400.0 mg/kg/injection, schedule: Q01DX001 (ip), vehicle: saline.
[10] abbreviates: dose: 400.0 mg/kg/injection, schedule: Q01DX009 (ip), vehicle: saline with Tween-80.

As for `Cc1cccc(C)c1NC(=O)N(CCCl)N=O`, the T/C (dose: 5.7 mg/kg/injection, schedule: Q01DX Z (oral), vehicle: carboxymethylcellulose (CMC)) was 150 % of control; the T/C (dose: 13.0 mg/kg/injection, schedule: Q01DX Z (oral), vehicle: carboxymethylcellulose (CMC)) was 206 % of control; the T/C (dose: 16.0 mg/kg/injection, schedule: Q01DX001 (ip), vehicle: carboxymethylcellulose (CMC)) is 192 % of control; the T/C (dose: 20.0 mg/kg/injection, schedule: Q01DX Z (oral), vehicle: carboxymethylcellulose (CMC)) is 170 % of control; the T/C (dose: 31.0 mg/kg/injection, schedule: Q01DX001 (ip), vehicle: carboxymethylcellulose (CMC)) is 308 % of control; the T/C (dose: 62.0 mg/kg/injection, schedule: Q01DX001 (ip), vehicle: carboxymethylcellulose (CMC)) was 156 % of control. The T/C was 156 % of control (dose: 125.0 mg/kg/injection, schedule: Q01DX001 (ip), vehicle: carboxymethylcellulose (CMC)) and 91 % of control (dose: 187.0 mg/kg/injection, schedule: Q01DX001 (ip), vehicle: carboxymethylcellulose (CMC)).

As to `CCOC(=O)c1cnc(SC)nc1Oc1ccccc1F`, the T/C runs as follows: under setting [1], 105 % of control; (dose: 100.0 mg/kg/injection, schedule: Q04DX003 (ip), vehicle: Klucel (hydroxypropylcellulose) (HPC)) 96 % of control; under setting [2], 96 % of control; (dose: 200.0 mg/kg/injection, schedule: Q04DX003 (ip), vehicle: Klucel (hydroxypropylcellulose) (HPC)) 119 % of control; under setting [3], 97 % of control; (dose: 400.0 mg/kg/injection, schedule: Q04DX003 (ip), vehicle: Klucel (hydroxypropylcellulose) (HPC)) 91 % of control.

As for `CCOC(=O)c1ccc(OCCOc2ccc(C(C)(C)CC)cc2)cc1`, the T/C by setting is: (dose: 100.0 mg/kg/injection, schedule: Q04DX003 (ip), vehicle: saline with Tween-80) 102 % of control; (dose: 200.0 mg/kg/injection, schedule: Q04DX003 (ip), vehicle: saline with Tween-80) 112 % of control; (dose: 400.0 mg/kg/injection, schedule: Q04DX003 (ip), vehicle: saline with Tween-80) 108 % of control.

For the compound `Clc1c(C(Cl)(Cl)Cl)nc2ccccc2c1Br`, the T/C was 101 % of control (dose: 6.25 mg/kg/injection, schedule: Q01DX009 (ip), vehicle: Klucel (hydroxypropylcellulose) (HPC)); 97 % of control (dose: 12.5 mg/kg/injection, schedule: Q01DX009 (ip), vehicle: Klucel (hydroxypropylcellulose) (HPC)); 97 % of control (dose: 25.0 mg/kg/injection, schedule: Q01DX009 (ip), vehicle: Klucel (hydroxypropylcellulose) (HPC)).

As for `Nc1nc2nc(I)[nH]c2c(=O)[nH]1`, the T/C (dose: 5.0 mg/kg/injection, schedule: Q01DX001 (ip), vehicle: saline) was 98 % of control; the T/C (dose: 10.0 mg/kg/injection, schedule: Q01DX001 (ip), vehicle: saline) is 102 % of control; the T/C (dose: 20.0 mg/kg/injection, schedule: Q01DX001 (ip), vehicle: saline) was 98 % of control; the T/C (dose: 40.0 mg/kg/injection, schedule: Q01DX001 (ip), vehicle: saline) was 103 % of control.

For `CC(=O)c1ccc(S(=O)(=O)Cl)cc1`, the T/C is 113 % of control under setting [4], 90 % of control under setting [5] and 104 % of control under setting [6].

Regarding `CN(C)C(=S)NCc1ccccc1`, the T/C under setting [7] is 95 % of control and the T/C under setting [8] is 101 % of control.

`CC(=O)OCC1CC2CC(O)C1C2` (stereo not drawn): where the note is “dose: 75.0 mg/kg/injection, schedule: Q01DX001 (ip), vehicle: acetone”, the T/C was 102 % of control.

With `CC(C)(CO)N=Cc1ccc(O)cc1O`, the T/C is 96 % of control (dose: 100.0 mg/kg/injection, schedule: Q01DX001 (ip), vehicle: carboxymethylcellulose (CMC)); 93 % of control (dose: 200.0 mg/kg/injection, schedule: Q01DX001 (ip), vehicle: carboxymethylcellulose (CMC)); 91 % of control (dose: 400.0 mg/kg/injection, schedule: Q01DX001 (ip), vehicle: carboxymethylcellulose (CMC)).

In the case of `Cc1ccccc1SCCC(=O)O`, the T/C was 100 % of control under setting [5]; 92 % of control under setting [1]; 87 % of control under setting [6]; 96 % of control under setting [2]; 87 % of control under setting [9]; 94 % of control under setting [3].

Regarding `COC(=O)C1(C)CCC(c2ccc(OC)cc2)C(CC(=O)O)C1=O` (stereo not drawn), the T/C by setting is: (dose: 100.0 mg/kg/injection, schedule: Q01DX009 (ip), vehicle: saline) 93 % of control; (dose: 100.0 mg/kg/injection, schedule: Q04DX003 (ip), vehicle: saline) 95 % of control; (dose: 200.0 mg/kg/injection, schedule: Q04DX003 (ip), vehicle: saline) 98 % of control; (dose: 400.0 mg/kg/injection, schedule: Q01DX009 (ip), vehicle: saline) 90 % of control; (dose: 400.0 mg/kg/injection, schedule: Q04DX003 (ip), vehicle: saline) 93 % of control.

Turning to `COc1cccc2c1C(=O)c1c(O)c3c(c(O)c1C2=O)C[C@@](O)(/C(C)=N/NC(N)=S)C[C@@H]3OC1CC(N)C(O)C(C)O1` (stereo partly drawn), the T/C runs as follows: (dose: 0.25 mg/kg/injection, schedule: Q04DX003 (ip), vehicle: water) 102 % of control; (dose: 0.5 mg/kg/injection, schedule: Q04DX003 (ip), vehicle: water) 110 % of control; (dose: 1.0 mg/kg/injection, schedule: Q01DX009 (ip), vehicle: water) 121 % of control; (dose: 1.0 mg/kg/injection, schedule: Q04DX003 (ip), vehicle: water) 107 % of control; (dose: 2.0 mg/kg/injection, schedule: Q01DX009 (ip), vehicle: water) 119 % of control; (dose: 2.0 mg/kg/injection, schedule: Q04DX003 (ip), vehicle: water) 104 % of control. For the same compound, the T/C runs as follows: (dose: 4.0 mg/kg/injection, schedule: Q04DX003 (ip), vehicle: water) 114 % of control; (dose: 7.0 mg/kg/injection, schedule: Q04DX003 (ip), vehicle: water) 122 % of control; (dose: 8.0 mg/kg/injection, schedule: Q04DX003 (ip), vehicle: water) 107 % of control; (dose: 10.6 mg/kg/injection, schedule: Q04DX003 (ip), vehicle: water) 120 % of control; (dose: 24.0 mg/kg/injection, schedule: Q04DX003 (ip), vehicle: water) 122 % of control; (dose: 32.0 mg/kg/injection, schedule: Q01DX009 (ip), vehicle: water) 124 % of control.

Regarding `Cc1cccc(C)c1NC(=S)NNC(=O)c1ccncc1`, the T/C was 97 % of control under setting [7]; 101 % of control (dose: 100.0 mg/kg/injection, schedule: Q04DX002 (ip), vehicle: saline with Tween-80); 96 % of control (dose: 200.0 mg/kg/injection, schedule: Q04DX002 (ip), vehicle: saline with Tween-80); 100 % of control under setting [10]; 101 % of control (dose: 400.0 mg/kg/injection, schedule: Q04DX002 (ip), vehicle: saline with Tween-80).

Turning to `CC1=C2CC[C@H]3[C@@H]4CC[C@H](O)[C@@]4(C)CC[C@@H]3[C@@]2(C)CCC1=O`, the T/C reads like this: (dose: 100.0 mg/kg/injection, schedule: Q01DX001 (sc), vehicle: steriod suspending solution) 98 % of control; (dose: 200.0 mg/kg/injection, schedule: Q01DX001 (sc), vehicle: steriod suspending solution) 98 % of control; (dose: 400.0 mg/kg/injection, schedule: Q01DX001 (sc), vehicle: steriod suspending solution) 96 % of control; (dose: 800.0 mg/kg/injection, schedule: Q01DX001 (sc), vehicle: steriod suspending solution) 96 % of control.

On to `Cc1nc(SCc2ccc(Cl)cc2)[nH]c(=O)c1CCO`, for which the T/C reads like this: under setting [7], 92 % of control; under setting [8], 92 % of control; under setting [10], 92 % of control.

For the compound `OCc1ccccc1O`, the T/C reads like this: (dose: 50.0 mg/kg/injection, schedule: Q01DX009 (ip), vehicle: Klucel (hydroxypropylcellulose) (HPC)) 105 % of control; (dose: 100.0 mg/kg/injection, schedule: Q01DX001 (ip), vehicle: Klucel (hydroxypropylcellulose) (HPC)) 100 % of control; under setting [1], 102 % of control; (dose: 200.0 mg/kg/injection, schedule: Q01DX001 (ip), vehicle: Klucel (hydroxypropylcellulose) (HPC)) 100 % of control; under setting [2], 102 % of control; (dose: 400.0 mg/kg/injection, schedule: Q01DX001 (ip), vehicle: Klucel (hydroxypropylcellulose) (HPC)) 106 % of control.

As to `O=C(O)C12C3(Cl)C4(Cl)C(O)(O)C5(Cl)C3(Cl)C1(Cl)C5(Cl)C42Cl` (stereo not drawn), the T/C is 102 % of control under setting [4], 105 % of control under setting [5], 96 % of control under setting [6] and 110 % of control under setting [9].
